In test [1] the target is T1, human monoacylglycerol lipase (hMAGL) (Homo sapiens, UniProt Q99685).
T1 construct: gene MGLL; highly purified recombinant hMAGL
T1 sequence (Q99685 1-303): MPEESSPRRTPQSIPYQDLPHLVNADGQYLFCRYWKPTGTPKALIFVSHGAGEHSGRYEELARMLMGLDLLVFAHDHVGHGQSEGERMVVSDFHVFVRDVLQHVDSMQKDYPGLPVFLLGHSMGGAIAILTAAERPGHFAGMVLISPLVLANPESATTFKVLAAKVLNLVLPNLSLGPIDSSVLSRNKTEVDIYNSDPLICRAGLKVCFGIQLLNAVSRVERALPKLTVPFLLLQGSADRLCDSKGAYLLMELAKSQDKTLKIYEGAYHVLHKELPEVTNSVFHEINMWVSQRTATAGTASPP
Put plainly: target-based real-time 1H NMR (chemical shift perturbation, covalent adduct formation and reactivation; residence time). It counts as binding.

The target in test [2] is T1, human monoacylglycerol lipase (hMAGL). Briefly: target-based real-time 1H NMR (chemical shift perturbation, covalent adduct formation and reactivation; residence time […] h); IC50 on recombinant hMAGL also printed. It counts as biochemical. The note with it: cited from earlier work.

One may read the IC50 as the concentration needed to halve the response being measured.

As to AM4301, in test [1], the “target-based real-time 1H NMR (chemical shift perturbation, covalent adduct form)” value worked out at 1.4 h.

Regarding AM9928, in test [2], the IC50 was 8.9 nM.

(Values after article PMC8964799, “Inhibition of triple negative breast cancer-associated inflammation, tumor growth and brain colonization by targeting monoacylglycerol lipase” (Scientific Reports, 2022).)
